{"source": "patent US20050070437A1", "about": "“Herbicide combinations comprising specific sulfonamides” (Bayer CropScience GmbH, priority 2003, published 2005)", "key": {"Veronica hederifolia": {"test_system": "Veronica hederifolia", "assay": "Herbicidal action (field trials), visual scoring of harmful plant", "format": "in vivo", "conditions": "field trial, natural outdoor conditions; scored visually about 4 weeks after application vs untreated plots; mean of 2-4 plots; application rate g of active substance/hectare: A 5, B 25, C 50 (A + B 5 + 25; A + B + C 5 + 25 + 50)", "procedure": "(§1) The seeds or rhizome pieces of the harmful plants and the useful plants were laid out or were present in the soil, and they were grown under natural outdoor conditions. Treatment with the active compounds or active compound combinations was carried out […] before and/or after the emergence of the plants, generally at the 2- to 4-leaf stage, in various dosages using a water application rate of 100 to 400 l/ha (converted).\n(§2) After the application (about 4 weeks after the application), the effectiveness of the active compounds or active compound combinations was scored visually by comparing the treated plots to untreated control plots. During scoring, damage and development of all above-ground parts of plants was assessed. Scoring was carried out using a percentage scale (100% effect=all plants have died; 50% effect=50% of the plants and the green parts of the plants have died; 0% effect=no effect observed=like control plot). In each case, the mean score of 2-4 plots was calculated.\n(§3) The results are shown in the table below; the effect of the individual application of active compounds (A+B) and C being stated in brackets."}, "Triticum aestivum": {"test_system": "Triticum aestivum", "format": "in vivo", "conditions": "field trial, natural outdoor conditions; scored visually about 4 weeks after application vs untreated plots; mean of 2-4 plots; application rate g of active substance/hectare: A 5, B 25, C 50 (A + B 5 + 25; A + B + C 5 + 25 + 50)", "procedure": "as §1, §2, §3"}}}
{"smiles": "O=C(Nc1ccc(F)cc1F)c1cccnc1Oc1cccc(C(F)(F)F)c1", "note": "[diflufenican, 2′,4′-difluoro-2-(α,α,α-trifluoro-m-tolyloxy)nicotinanilide]", "values": [{"measurement": "Veronica hederifolia % effect", "setting": "Veronica hederifolia", "result": 40, "unit": "%"}, {"measurement": "Triticum aestivum % damage", "setting": "Triticum aestivum", "result": 0, "unit": "%"}]}
{"smiles": "COC(=O)c1ccc(I)cc1S(=O)(=O)[N-]C(=O)Nc1nc(C)nc(OC)n1.[Na+]", "note": "[iodosulfuron-methyl-sodium]", "values": [{"measurement": "Veronica hederifolia % effect", "setting": "Veronica hederifolia", "result": 15, "unit": "%"}, {"measurement": "Triticum aestivum % damage", "setting": "Triticum aestivum", "result": 1, "unit": "%"}]}
{"smiles": "CCCOc1nn(C(=O)[N-]S(=O)(=O)c2ccccc2C(=O)OC)c(=O)n1C.[Na+]", "note": "[propoxycarbazone-sodium]", "values": [{"measurement": "Veronica hederifolia % effect", "setting": "Veronica hederifolia", "result": 28, "unit": "%"}, {"measurement": "Triticum aestivum % damage", "setting": "Triticum aestivum", "result": 2, "unit": "%"}]}
